Source: patent publication US11026942B2, “Agent for preventing and/or treating Alzheimer's disease” (KYOTO UNIVERSITY, priority 2015, dated 2021)

Tests used:
Format in all cases: cell-based, human
[1] = test system: Aβ40; settings: secondary screening, FAD1 iPS cell-derived nerve cells, numerical value (Aβ change rate)
Excerpt: To perform induction from iPS cells to the cerebral cortex nerve early and with high reproducibility, iPS cells introduced with human Neurogenin 2 gene (NGN2) linked to doxycycline-inducible promoter by using PiggyBac were used (FIG. 1a, FIG. 1b, FIG. 4a and FIG. 4b). IPS cells prepared from 4 patients with familial Alzheimer's disease (FAD), 2 patients with sporadic Alzheimer's disease (SAD) and 4 healthy individuals (HC) were used. The iPS cells were established by the method described in Okita K et al., Nature.
Structural formulas (those in the form of salt or halide are also described as free form) and the general names of the candidate compounds are shown in Table 1.
(§1) To further study reproducibility of the candidate drugs obtained by the primary screening, secondary screening was conducted. In addition to Aβ40, Aβ42, Aβ42/40 ratio, Aβ38, Aβ43, sAPPα, sAPPβ were also studied and each numerical value was obtained.

[2] = test system: Aβ42; experiment: Aβ42 in FAD1 iPS cell-derived nerve cells (primary/secondary screening, dose dependency); settings: secondary screening, FAD1 iPS cell-derived nerve cells, numerical value (Aβ change rate)
Procedure, shortened: (§2)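 Cerebral cortex neurons were induced from FAD1 patient iPS cells by doxycycline-inducible NGN2, delivered by PiggyBac. Aβ40 and Aβ42 in the culture medium gave the Aβ42/40 ratio, with dose dependency examined in primary and secondary screens. The secondary screen also covered Aβ38, Aβ43, sAPPα and sAPPβ.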

[3] = test system: Aβ42/40 ratio; experiment: Aβ42/40 ratio in FAD1 iPS cell-derived nerve cells (primary/secondary screening, dose dependency); settings: secondary screening
Procedure, shortened: as §2

[4] = test system: Aβ38; experiment: Aβ38 in FAD1 iPS cell-derived nerve cells (secondary screening); design: scale not given here
Procedure: as §1

[5] = test system: Aβ43; experiment: Aβ43 in FAD1 iPS cell-derived nerve cells (secondary screening); design: scale not given here
Procedure: as §1

[6] = test system: sAPPα; experiment: sAPPα in FAD1 iPS cell-derived nerve cells (secondary screening); settings: secondary screening, FAD1 iPS cell-derived nerve cells
Procedure: as §1

[7] = test system: sAPPβ; experiment: sAPPβ in FAD1 iPS cell-derived nerve cells (secondary screening); settings: secondary screening, FAD1 iPS cell-derived nerve cells
Procedure: as §1

## RIFAXIMIN [compound 97]
[1]
  Aβ40: 0.92
[2]
  Aβ42: 0.84
[3]
  Ratio Aβ42/40: 0.91
[4]
  Aβ38: 1.09
[5]
  Aβ43: 0.92
[6]
  sAPPα: 0.91
[7]
  sAPPβ: 0.95
